Reference: patent US10294202B2, “Pyrrolidinones as herbicides” (FMC Corporation, priority 2013, dated 2019)

Key:
[1] = tested on: waterhemp; assay: Test C pre-/postemergence herbicide test; type: in vivo, Amaranthus rudis; conditions: for Waterhemp plant response rating: scale 0 to 100, 0 is no effect and 100 is complete control
In short: (§1)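 Test compounds, formulated in a surfactant-containing non-phytotoxic solvent blend, are applied to seeded loam/sand soil (preemergence) and to young plants at the 1- to 4-leaf stage in peat-based medium (postemergence). Plants stay 13 to 15 days under greenhouse conditions, then are scored visually relative to controls, 0 = no effect, 100 = complete control.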

[2] = tested on: barnyardgrass; assay: Test B flooded paddy test; type: in vivo, Echinochloa crus-galli; conditions: Flood, scale of 0 to 100 where 0 is no effect and 100 is complete control
In short: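 In-water application to pots flooded 3 cm deep, plants at 2-leaf stage. Held in greenhouse 13–15 days at constant flood depth. Scored 0–100 by eye against controls.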

[3] = tested on: oilseed rape; assay: Test C pre-/postemergence herbicide test; type: in vivo, Brassica napus; conditions: for Oilseed Rape plant response rating: scale 0 to 100, 0 is no effect and 100 is complete control
In short: as §1

[4] = tested on: galium; assay: Test A postemergence herbicide test; type: in vivo, Galium aparine
In short: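 Young potted plants in a loam–sand mix, one- to two-leaf stage and 2–10 cm tall, receive the test chemical postemergence and stay in a greenhouse for approximately 10 days. Injury is then judged by eye against untreated plants, scored 0 (none) to 100 (complete control).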

[5] = tested on: barnyardgrass; assay: Test A pre-/postemergence herbicide test; type: in vivo, Echinochloa crus-galli
In short: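 Planted in loam–sand blend; treated the same day preemergence by directed soil spray, while separately grown plants at one- to two-leaf stage got postemergence spray. Compared visually with untreated controls after approximately 10 days; 100 means complete control.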

[6] = tested on: foxtail, giant; assay: Test C pre-/postemergence herbicide test; type: in vivo, Setaria faberii; conditions: for Foxtail, Giant plant response rating: scale 0 to 100, 0 is no effect and 100 is complete control
In short: as §1

[7] = tested on: soybean; assay: Test C pre-/postemergence herbicide test; type: in vivo, Glycine max; conditions: for Soybean plant response rating: scale 0 to 100, 0 is no effect and 100 is complete control
In short: as §1

[8] = Postemergence, 31 g ai/ha, scale 0 (no effect) to 100 (complete control)
[9] = Postemergence, 62 g ai/ha, scale 0 to 100 (0 no effect, 100 complete control)
[10] = Postemergence, 125 g ai/ha, scale 0 to 100 (0 no effect, 100 complete control)
[11] = Postemergence, 250 g ai/ha, scale 0 to 100 (0 no effect, 100 complete control)
[12] = Preemergence, 62 g ai/ha, scale 0 to 100
[13] = Preemergence, 125 g ai/ha, scale 0 to 100 (0 no effect, 100 complete control)
[14] = 125 g ai/ha, 0 to 100 scale, 0 no effect, 100 complete control
[15] = Postemergence, 125 g ai/ha, 0 to 100 scale, 0 no effect, 100 complete control
[16] = Postemergence, 500 g ai/ha, 0 to 100 scale (0 no effect, 100 complete control)
[17] = preemergence, 500 g ai/ha, 0 to 100 scale (0 no effect, 100 complete control)
[18] = Postemergence, 31 g ai/ha, scale 0 to 100 (0 no effect, 100 complete control)
[19] = Postemergence, 62 g ai/ha, scale 0 (no effect) to 100 (complete control)

SMILES	Plant response rating, Waterhemp [1, 10]	Plant response rating, Waterhemp [1, 11]	Waterhemp plant response rating ([1]; Preemergence, 31 g ai/ha)	Plant response rating, Waterhemp [1, 12]	Plant response rating, Waterhemp [1, 13]	Plant response rating (scale of 0 to 100), Waterhemp ([1]; Preemergence, 250 g ai/ha)	Plant response rating, Oilseed Rape [3, 10]	Plant response rating, Oilseed Rape [3, 11]	Oilseed Rape plant response rating ([3]; Preemergence, 31 g ai/ha)	Plant response rating, Oilseed Rape [3, 12]	Plant response rating, Oilseed Rape [3, 13]	Plant response rating (scale of 0 to 100), Oilseed Rape ([3]; Preemergence, 250 g ai/ha)	Plant response rating, Galium [4, 14]	Plant response rating, Barnyardgrass [5, 15]	Plant response rating, Barnyardgrass [5, 16]	Plant response rating, Barnyardgrass [5, 17]	Plant response rating, Foxtail, Giant [6, 10]	Plant response rating, Foxtail, Giant [6, 11]	Foxtail, Giant plant response rating ([6]; Preemergence, 31 g ai/ha)	Plant response rating, Foxtail, Giant [6, 12]	further results
Cc1ccccc1NC(=O)C1C(=O)NCC1c1cccc(C(F)(F)F)c1 (racemic) [Compound 109]	0	0	0	50	0	20	5	5	0	0	5	40	30	90	90	90	50	70	90	95	Plant response rating, Waterhemp [1, 8]: 0; Plant response rating, Waterhemp [1, 9]: 0; Plant response rating, Barnyardgrass ([2]; 1000 g ai/ha): 0; Plant response rating, Oilseed Rape [3, 8]: 0; Plant response rating, Oilseed Rape [3, 9]: 0; Plant response rating, Galium ([4]; 500 g ai/ha, 0 to 100 scale (0 no effect, 100 complete control)): 60; Barnyardgrass plant response rating ([5]; Preemergence, 125 g ai/ha, visual rating on 0 to 100 scale (0 no effect, 100 complete control)): 80; Plant response rating, Foxtail, Giant [6, 8]: 60; Plant response rating, Foxtail, Giant [6, 9]: 15; Plant response rating, Foxtail, Giant [6, 13]: 98; Plant response rating (scale of 0 to 100), Foxtail, Giant ([6]; Preemergence, 250 g ai/ha): 100; Plant response rating, Soybean [7, 8]: 0; Plant response rating, Soybean [7, 9]: 0; Plant response rating, Soybean [7, 10]: 5; Plant response rating, Soybean [7, 11]: 5; Soybean plant response rating ([7]; Preemergence, 31 g ai/ha): 100; Plant response rating, Soybean [7, 12]: 0; Plant response rating, Soybean [7, 13]: 55; Plant response rating (scale of 0 to 100), Soybean ([7]; Preemergence, 250 g ai/ha): 0
O=C1NCC(c2ccc(F)cc2)C1C(=O)Nc1ccc(F)c(F)c1F (racemic) [Compound 120]	15	20	0	60	75	85	0	0	0	0	70	90	50	80	90	90	75	85	90	95	Plant response rating, Waterhemp [1, 18]: 0; Plant response rating, Waterhemp [1, 19]: 0; Plant response rating, Barnyardgrass ([2]; 500 g ai/ha): 80; Plant response rating, Oilseed Rape [3, 18]: 0; Plant response rating, Oilseed Rape [3, 19]: 0; Galium plant response rating (0 to 100 scale, 0 is no effect, 100 is complete control) ([4]; 500 g ai/ha): 60; Plant response rating, Barnyardgrass ([5]; 125 g ai/ha, visual rating, 0 to 100 scale, 0 no effect, 100 complete control, approximately 10 days, preemergence): 90; Plant response rating, Foxtail, Giant [6, 18]: 25; Plant response rating, Foxtail, Giant [6, 19]: 65; Plant response rating, Foxtail, Giant [6, 13]: 98; Plant response rating (scale of 0 to 100), Foxtail, Giant ([6]; Preemergence, 250 g ai/ha): 98; Plant response rating, Soybean [7, 18]: 0; Plant response rating, Soybean [7, 19]: 0; Plant response rating, Soybean [7, 10]: 0; Plant response rating, Soybean [7, 11]: 0; Soybean plant response rating ([7]; Preemergence, 31 g ai/ha): 0; Plant response rating, Soybean [7, 12]: 0; Plant response rating, Soybean [7, 13]: 0; Plant response rating (scale of 0 to 100), Soybean ([7]; Preemergence, 250 g ai/ha): 0
